Results on one compound are retold here after paper PMC5908160, “Inhibition of sperm motility in male macaques with EP055, a potential non-hormonal male contraceptive” (PLoS ONE, 2018).

Read-outs that look alike come from different tables or passages of the source.

Data set [1] in a line: EP055 testis, epididymis and plasma levels in cynomolgus males after i.v. infusion. The note with it: 63.25 mg/kg i.v. It is filed as in vivo, Macaca fascicularis. The text has this: Evaluation of the effects of an i.v. infusion of EP055 on male cynomolgus macaque reproductive system was done by Sinclair Research Center, LLC. (Study No: S14574). This study was reviewed and approved by the Sinclair IUCAC committee and complied with all applicable sections of USDA Policy 12 and the Final Rules of the Animal Welfare Act regulation (9 CFR). This study used 6 naïve cynomolgus males (3-4 yrs old, 4 kg or less). Doses of EP055 in 5% DMSO-PBS, pH 7.6 or vehicle control were infused by i.v. at 63.25 mg/kg. The infusion rate was 4 ml/min. Plasma and tissues (epididymis and testis) were collected at 2 hr or 6 hr and immediately frozen on dry ice. Samples were stored at -80 °C until processing. Half-life was approximated using the 2 hr and 6 hr points and an estimation of the initial plasma level using the initial dose of […], the circulating blood volume of 65 ml/kg, average hematocrit of 41.7 (S2 Table) and average animal size (3.72 kg for n=4).
(§1) Semen or tissue samples were thawed at room temperature. PBS at pH 7.6 was added to each sample at a ratio of 2:1 and sonicated in an ice chilled bath for 5 minutes before homogenization using a Polytron unit (Kinematica AG, Lucerne, Switzerland). An aliquot (25 uL) of each sample homogenate was processed as described for plasma samples.

The subject of the next data set is human sperm. The experiment in a line: CASA (Computer Assisted Sperm Analysis) assay of human sperm motility. It is filed as cell-based. Particulars: n = 4 donors, read-out: average relative motility index (RMI) IC50. As to the method:
Human semen samples were obtained from the Department of Obstetrics and Gynecology, University of North Carolina Memorial Hospital, Chapel Hill, NC. […] Semen samples were allowed to liquefy for 30 minutes and subjected to standard semen analysis to determine acceptability before freezing. All samples were stored in liquid nitrogen, and de-identified by the Department of Obstetrics and Gynecology, University of North Carolina Memorial Hospital, Chapel Hill, NC before further processing. A density gradient (Isolate catalog number 99264, Irving Scientific, Irving CA, or SpermCare catalog number 2221 and 2222, InvitroCare Inc., Frederick MD) was used to prepare spermatozoa for further analysis. At least 3 independent experiments were done per assay, each using a single donor.
Computer Assisted Sperm Analysis (CASA) was conducted as previously described. Briefly sperm were washed after the density gradient with EP buffer-0.4% BSA and resuspended in modified M16 for compound treatments. Sperm were diluted to 5 x 10^6/mL in 12x75 mm glass tubes with the appropriate treatment and incubated at 37°C in 5% CO2. […] The relative mobility index (RMI) is a measure of the effect of compound on sperm and is calculated as the VSL x %normal motility and normalized to the appropriate DMSO control.

The nature of data set [2]: EP055 plasma and semen levels in rhesus males after i.v. infusion. It is filed as in vivo, Macaca mulatta.
Description: Semen was collected by direct penile stimulation with a P-T Electronics Model 303 PTE 110 Volt AC stimulator equipped with electrocardiogram pad electrodes (10–35 V, 20 ms duration, 18 pulses/sec) as previously described. Semen was collected weekly for 3 weeks to establish baseline parameters for each male. Samples were inspected visually to determine sperm motility and suitability for the study. Sperm motility data from male 28106 presented in S1 Table is representative of pre-treatment samples. Immediately after collection, the seminal plug was separated from the liquefied fraction, placed into a cryovial, flash frozen in liquid nitrogen, and stored at -80C until evaluation for drug levels. Spermatozoa were prepared by centrifugation (7 min, 200 g) of the liquid portion of the ejaculate and resuspending the sperm pellet in TALP-HEPES medium containing 0.3% bovine serum albumin at 37°C. An aliquot was taken to determine concentration using a hemocytometer, percent motility and forward progression as previously described. Baseline semen samples were collected from each male twice during the week prior to treatment. Semen was collected from each male 6–8 hr, 28–30 hr, and 78 hr post-infusion of low dose EP055 (75–80 mg/kg body weight) intravenously. After a one-week recovery period, a baseline semen sample was obtained, and the following week semen samples were collected as described above after an intravenous infusion of high dose EP055 (125–130 mg/kg).
Sample preparation and LC-MS/MS analysis were done by OpAns LLC (Durham, NC). Plasma samples (both rat and macaque) were thawed at room temperature and processed by adding 160 µL of methanol (including 10 µL internal standard) to 25 µL of the sample. Samples were vortexed for 5 minutes, centrifuged at 2684 x g for 5 minutes. 50 µL of supernatant was removed for analysis by HPLC-MS/MS.
as §1
Prior to infusion of EP055, each male was sedated with ketamine by the surgical staff at ONPRC and transported to the operating room. After positioning in dorsal recumbency, the male was intubated and placed under inhalant (isoflurane) anesthesia. Bilateral intravenous catheters were placed in cephalic veins, one for infusion and one for back-up. A percutaneous arterial line was placed in the right femoral artery for direct blood pressure measurement. Invasive blood pressure, heart rate, SpO2, and respirations were monitored by the surgical staff throughout the procedure. Initially, the low doses of EP055 in 5% DMSO-PBS 7.6 was infused by i.v. at 75-80 mg/kg, using a Medfusion 3500 pump (Smiths Medical, St. Paul, MN), and was started at a low flow rate ([…]). In 3 of 4 males, a 5-10% increase in blood pressure and heart rate were noted within the first 2-3 minutes of infusion of EP055. In these cases, the infusion was temporarily suspended until these parameters subsequently declined to normal. The infusion rate was then doubled to 1.2 ml/kg/min after 5-10 minutes and the final volume of EP055 infusate was administered. Blood pressure and heart rate remained normal throughout the rest of the infusion interval. The total volume of EP055 infusate ranged from 72 ml – 136 ml, depending upon the weight of the animal, and the duration of infusion was 10-13 minutes. Following completion of the infusion, all animals recovered normally. Animals were monitored by clinical veterinary staff immediately, at 1 hr, 2 hr and 6-8 hr post-infusion, and daily for up to 30 days after the final infusion of EP055. […]

Take `COC(=O)NNc1nc(Nc2ccc(NC(C)=O)c(O)c2)nc(SCC(=O)O)n1` [EP055]: the “epididymis versus testis level (ug/mg of tissue)” value in data set [1] (2 and 6 hours) is on record as “significantly (p < 0.05) more EP055 (ug/mg of tissue) in the epididymis after 2 hours but not after 6 hours”. Further, in data set [1] (2 and 6 hours), the “total amounts in testis versus epididymis” value is “not significantly different at 2 and 6 hours”. Moreover, in data set [1] (2 and 6 hours post-infusion), the “presence in testis and epididymis” value is “detected in testis and epididymis two hours and six hours post-infusion”. Further, the half-life in data set [1] (cynomolgus monkey, iv, extrapolated from 2 hr and 6 hr points and calculated initial plasma concentration, read-out: estimated plasma half-life (t1/2) in target tissue experiment) is 11.9 min. The IC50 with human sperm is 200 µM. The concentration in data set [2] (high dose 125–130 mg/kg, 6–8 hr, read-out: Plasma levels) is 970 ± 660 nM; in data set [2] (high dose 125–130 mg/kg, 6–8 hr, read-out: Semen Levels), 539000 nM; in data set [2] (high dose 125–130 mg/kg, 13–17 days, read-out: Semen Levels), 900 ± 900 nM; in data set [2] (low dose 75–80 mg/kg, 14–18 days, read-out: Semen Levels), 400 ± 300 nM; in data set [2] (rhesus, 6 and 30 hours after high-dose infusion, read-out: semen levels), greater than 300000 nM. Besides, the concentration at 30 h in data set [2] (rhesus monkey, plasma, iv, high dose 125–130 mg/kg, read-out: Plasma levels) was found to be 0.02 ± 0.01 µM; in data set [2] (rhesus monkey, plasma, iv, low dose 75–80 mg/kg, read-out: Plasma levels), 0.01 µM; in data set [2] (rhesus monkey, semen, iv, high dose 125–130 mg/kg, read-out: Semen Levels) it was 376 µM; in data set [2] (rhesus monkey, semen, iv, low dose 75–80 mg/kg, read-out: Semen Levels), 128 ± 46 µM. Besides, the concentration at 6 h in data set [2] (rhesus monkey, plasma, iv, low dose 75–80 mg/kg, 6 hr after infusion, mean ± SEM 4 animals, read-out: Plasma levels) is 0.62 ± 0.3 µM; in data set [2] (rhesus monkey, semen, iv, low dose 75–80 mg/kg, 6 hr, read-out: Semen Levels) it was 293 µM. Also, the concentration at 78 h is 101 ± 30 µM in data set [2] (rhesus monkey, semen, iv, high dose 125–130 mg/kg) and 61 ± 22 µM in data set [2] (rhesus monkey, semen, iv, low dose 75–80 mg/kg). Also, in data set [2] (rhesus monkey, semen/plasma, iv, high dose 125–130 mg/kg, 6–8 hr, read-out: Ratio of S/P), the Kp was 556. In addition, the Kp at 6 h in data set [2] (rhesus monkey, semen/plasma, iv, low dose 75–80 mg/kg, 6 hr, read-out: Ratio of S/P) was 473. Also, the detection in plasma result in data set [2] (rhesus, 6–8 hours post-infusion) is on record as “detected”; in data set [2] (rhesus, 28–30 hours post-infusion), “barely detectable”. Besides, the “time semen levels detectable post-infusion” value in data set [2] (rhesus, low and high dose) was “up to 78 hours”.
